ChEMBL document CHEMBL4387773, “Identification of potent, selective and orally bioavailable phenyl ((R)-3-phenylpyrrolidin-3-yl)sulfone analogues as RORγt inverse agonists” (Bioorg Med Chem Lett, 2019)

Key:
PXR = target: T1, PXR (Homo sapiens, UniProt O75469); assay: Transactivation of PXR (unknown origin) expressed in human HepG2 cells assessed as maximum receptor activation response relative to control; format: cell-based; conditions: human HepG2 cells that express PXR, read-out: %max
T1 sequence (O75469 whole entry): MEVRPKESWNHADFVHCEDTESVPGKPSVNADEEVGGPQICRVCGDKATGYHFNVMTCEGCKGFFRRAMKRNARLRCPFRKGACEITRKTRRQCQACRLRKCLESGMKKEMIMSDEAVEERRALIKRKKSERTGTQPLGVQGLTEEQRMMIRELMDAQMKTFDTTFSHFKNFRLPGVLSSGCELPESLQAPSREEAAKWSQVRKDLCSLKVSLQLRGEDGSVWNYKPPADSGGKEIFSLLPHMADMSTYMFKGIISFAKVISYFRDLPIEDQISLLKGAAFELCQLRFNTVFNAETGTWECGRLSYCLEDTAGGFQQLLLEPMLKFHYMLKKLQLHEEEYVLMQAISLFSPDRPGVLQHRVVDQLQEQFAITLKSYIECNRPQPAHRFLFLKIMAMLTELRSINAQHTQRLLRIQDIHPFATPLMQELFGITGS

[1] = Stability in mouse liver microsomes assessed as parent compound remaining after 10 mins; format: ADME, Microsome; conditions: liver microsomes, read-out: Stability
[2] = target: T2, Nuclear receptor ROR-alpha (Homo sapiens, UniProt P35398); assay: Inverse agonist activity at human Gal4-fused RORalpha LBD (272 to 556 residues) expressed in human Jurkat cells measured after 18 hrs by steady-glo luciferase reporter gene assay; format: cell-based
T2 sequence (P35398 whole entry): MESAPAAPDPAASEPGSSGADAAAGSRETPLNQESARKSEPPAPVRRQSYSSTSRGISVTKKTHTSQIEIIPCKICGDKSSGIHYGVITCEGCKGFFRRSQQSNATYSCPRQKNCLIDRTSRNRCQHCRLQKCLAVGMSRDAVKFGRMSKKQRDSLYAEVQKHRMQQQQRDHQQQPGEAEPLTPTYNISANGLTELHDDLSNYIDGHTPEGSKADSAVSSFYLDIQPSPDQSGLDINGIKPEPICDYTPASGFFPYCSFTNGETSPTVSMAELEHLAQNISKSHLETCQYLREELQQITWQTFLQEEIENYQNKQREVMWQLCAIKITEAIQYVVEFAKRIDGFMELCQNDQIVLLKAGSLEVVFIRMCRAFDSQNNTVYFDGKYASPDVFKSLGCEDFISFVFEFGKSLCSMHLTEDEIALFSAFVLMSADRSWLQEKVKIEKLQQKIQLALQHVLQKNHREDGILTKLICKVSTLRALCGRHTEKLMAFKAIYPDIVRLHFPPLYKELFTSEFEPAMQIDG

[3] = target: T3, Nuclear receptor ROR-beta (Homo sapiens, UniProt Q92753); assay: Inverse agonist activity at human Gal4-fused RORbeta LBD (200 to 559 residues) expressed in human Jurkat cells measured after 18 hrs by steady-glo luciferase reporter gene assay; format: cell-based
T3 sequence (Q92753 whole entry): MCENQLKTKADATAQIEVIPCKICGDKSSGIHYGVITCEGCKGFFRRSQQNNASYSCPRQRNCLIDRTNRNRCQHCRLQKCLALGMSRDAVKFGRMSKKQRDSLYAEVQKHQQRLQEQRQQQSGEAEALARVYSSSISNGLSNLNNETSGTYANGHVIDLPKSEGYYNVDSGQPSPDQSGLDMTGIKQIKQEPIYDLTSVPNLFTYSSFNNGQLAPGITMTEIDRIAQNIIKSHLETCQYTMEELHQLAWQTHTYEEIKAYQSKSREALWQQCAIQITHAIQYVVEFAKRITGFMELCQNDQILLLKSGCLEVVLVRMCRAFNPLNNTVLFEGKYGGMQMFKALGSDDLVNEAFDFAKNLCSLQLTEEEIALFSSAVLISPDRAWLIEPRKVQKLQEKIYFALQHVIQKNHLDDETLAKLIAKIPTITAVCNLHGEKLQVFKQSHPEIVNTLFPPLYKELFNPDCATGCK

[4] = Half life in rat liver microsomes; format: ADME, Microsome
[5] = Half life in mouse liver microsomes; format: ADME, Microsome
Cytochrome P450 2C8 = target: T4, Cytochrome P450 2C8 (Homo sapiens, UniProt P10632); assay: Inhibition of CYP2C8 (unknown origin); format: ADME
T4 sequence (P10632 whole entry): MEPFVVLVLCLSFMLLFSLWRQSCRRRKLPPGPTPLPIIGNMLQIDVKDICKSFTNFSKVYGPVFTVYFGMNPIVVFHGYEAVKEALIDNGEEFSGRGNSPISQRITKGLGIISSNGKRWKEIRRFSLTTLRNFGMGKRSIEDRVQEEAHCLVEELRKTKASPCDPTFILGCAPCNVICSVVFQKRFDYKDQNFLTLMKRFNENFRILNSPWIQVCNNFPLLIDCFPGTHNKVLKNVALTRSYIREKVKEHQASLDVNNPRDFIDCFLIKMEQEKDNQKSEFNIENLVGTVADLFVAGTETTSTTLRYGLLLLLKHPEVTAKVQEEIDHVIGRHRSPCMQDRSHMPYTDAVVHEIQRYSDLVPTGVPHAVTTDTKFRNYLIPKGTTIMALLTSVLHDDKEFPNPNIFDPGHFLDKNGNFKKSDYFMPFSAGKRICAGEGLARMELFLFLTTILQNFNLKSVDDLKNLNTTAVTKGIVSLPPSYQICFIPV

Cytochrome P450 2C19 = Cytochrome P450 2C19 (Homo sapiens, UniProt P33261); assay: Inhibition of CYP2C19 (unknown origin); format: ADME
Cytochrome P450 2D6 = Cytochrome P450 2D6 (Homo sapiens, UniProt P10635); assay: Inhibition of CYP2D6 (unknown origin); format: ADME
[6] = Cmax in Balb/c mouse at 10 mg/kg, po; format: ADME, organism-based; set-up: dose 10 mg/kg, route oral; conditions: in vivo
[7] = Tmax in Balb/c mouse at 10 mg/kg, po; format: ADME, organism-based; conditions: in vivo
[8] = AUC in Balb/c mouse at 10 mg/kg, po; format: ADME, organism-based; conditions: in vivo

Sequence of Cytochrome P450 2D6 (P10635 whole entry): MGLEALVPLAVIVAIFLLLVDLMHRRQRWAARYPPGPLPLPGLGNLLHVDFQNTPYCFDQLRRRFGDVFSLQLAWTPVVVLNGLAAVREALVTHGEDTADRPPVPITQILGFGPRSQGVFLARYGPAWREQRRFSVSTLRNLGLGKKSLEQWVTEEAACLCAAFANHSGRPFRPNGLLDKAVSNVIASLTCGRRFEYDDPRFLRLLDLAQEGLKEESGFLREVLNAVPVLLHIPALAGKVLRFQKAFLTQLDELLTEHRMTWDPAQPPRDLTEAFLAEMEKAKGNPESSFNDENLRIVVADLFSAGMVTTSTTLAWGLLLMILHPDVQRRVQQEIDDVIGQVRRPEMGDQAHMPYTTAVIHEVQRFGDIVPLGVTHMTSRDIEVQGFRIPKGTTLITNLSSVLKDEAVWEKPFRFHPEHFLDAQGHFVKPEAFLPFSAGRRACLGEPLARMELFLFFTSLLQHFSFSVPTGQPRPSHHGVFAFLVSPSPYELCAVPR
Sequence of Cytochrome P450 2C19 (P33261 whole entry): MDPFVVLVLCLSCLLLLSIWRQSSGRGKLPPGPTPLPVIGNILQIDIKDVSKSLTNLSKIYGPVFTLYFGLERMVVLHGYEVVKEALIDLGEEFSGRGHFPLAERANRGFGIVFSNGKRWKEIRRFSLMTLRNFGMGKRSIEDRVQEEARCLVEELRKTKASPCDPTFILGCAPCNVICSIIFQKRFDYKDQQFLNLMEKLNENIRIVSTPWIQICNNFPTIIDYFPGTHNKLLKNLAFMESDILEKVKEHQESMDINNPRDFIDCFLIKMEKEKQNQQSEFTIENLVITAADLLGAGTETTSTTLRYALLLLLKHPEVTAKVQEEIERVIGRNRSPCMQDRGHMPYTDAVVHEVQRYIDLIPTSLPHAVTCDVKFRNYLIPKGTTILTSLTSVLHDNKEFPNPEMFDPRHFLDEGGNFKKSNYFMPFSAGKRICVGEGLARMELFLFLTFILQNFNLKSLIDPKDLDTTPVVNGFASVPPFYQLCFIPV

SMILES	Emax (PXR)	remaining at 10 min [1]	EC50 [2]	EC50 [3]	half-life [4]	half-life [5]	IC50 (Cytochrome P450 2C8)	IC50 (Cytochrome P450 2C19)	IC50 (Cytochrome P450 2D6)	Cmax [6]	Tmax [7]	AUC [8]
O=C(O)C12CCC(C(=O)N3CC[C@](c4ccc(C(F)(C(F)(F)F)C(F)(F)F)cc4)(S(=O)(=O)c4ccc(F)cc4)C3)(CC1)CC2	6%	73%	> 40 µM	> 40 µM	> 2 h	> 2 h	> 10 µM	> 10 µM	> 10 µM	6.7 µM	1 h	24 µM·h
CC[C@]1(C(=O)N2CC[C@](c3ccc(C(F)(C(F)(F)F)C(F)(F)F)cc3)(S(=O)(=O)c3ccc(F)cc3)C2)CC[C@H](C(=O)O)CC1	6%	83%	> 40 µM	> 40 µM	> 2 h	> 2 h	> 10 µM	> 10 µM	> 10 µM	3.7 µM	0.5 h	16.6 µM·h
